Assays:
DCP2 enzyme = target: T1, DCP2 enzyme (Schizosaccharomyces pombe, UniProt O13828); assay: Decapping enzyme stability test; assay type: biochemical; settings: for Decapping rate (%) of DCP2 enzyme: 50 U mRNA decapping enzyme, 37° C., 45 minutes
T1 construct: purchased New England Biolabs
T1 sequence (O13828 1-243 limits assumed): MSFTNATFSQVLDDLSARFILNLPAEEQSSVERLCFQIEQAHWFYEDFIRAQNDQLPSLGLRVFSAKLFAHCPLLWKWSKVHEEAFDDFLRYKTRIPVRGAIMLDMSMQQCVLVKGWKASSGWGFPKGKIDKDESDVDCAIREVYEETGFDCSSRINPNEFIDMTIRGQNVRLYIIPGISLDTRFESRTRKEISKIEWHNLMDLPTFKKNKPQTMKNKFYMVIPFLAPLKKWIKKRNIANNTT
T1 sequence (Q9P805 1-127 partner): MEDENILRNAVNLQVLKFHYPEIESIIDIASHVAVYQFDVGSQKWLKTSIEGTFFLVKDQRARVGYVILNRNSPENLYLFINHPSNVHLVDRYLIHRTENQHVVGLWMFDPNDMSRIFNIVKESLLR
T1 sequence (Q10108 155-180 partner limits assumed): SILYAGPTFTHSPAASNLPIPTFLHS
Procedure: […] of RNA purified by polyacrylamide gel electrophoresis (PAGE) was subjected to an enzymatic reaction with 50 U of mRNA decapping enzyme (New England Biolabs) and 1×MDE buffer at 37° C. for 45 minutes. The enzymatic reactants were subjected to PAGE and stained with SYBR Green II (Lonza), followed by observation of the post-electrophoresis gel image on a Typhoon FLA 7000 (GE Healthcare) instrument. The electrophoresis band intensity ratio of RNA capping to RNA decapping was counted using ImageQuant (GE Healthcare) software, and the decapping rate of the decapping enzyme was calculated.

T7 RNA polymerase [1] = target: T2, T7 RNA polymerase (Escherichia phage T7, UniProt P00573); assay: In vitro transcription yield of mRNA using cap analogs; assay type: biochemical; settings: for Yield per unit template: in vitro transcription, 1 μg DNA template, 37° C., 2 hours
T2 sequence (P00573 whole entry): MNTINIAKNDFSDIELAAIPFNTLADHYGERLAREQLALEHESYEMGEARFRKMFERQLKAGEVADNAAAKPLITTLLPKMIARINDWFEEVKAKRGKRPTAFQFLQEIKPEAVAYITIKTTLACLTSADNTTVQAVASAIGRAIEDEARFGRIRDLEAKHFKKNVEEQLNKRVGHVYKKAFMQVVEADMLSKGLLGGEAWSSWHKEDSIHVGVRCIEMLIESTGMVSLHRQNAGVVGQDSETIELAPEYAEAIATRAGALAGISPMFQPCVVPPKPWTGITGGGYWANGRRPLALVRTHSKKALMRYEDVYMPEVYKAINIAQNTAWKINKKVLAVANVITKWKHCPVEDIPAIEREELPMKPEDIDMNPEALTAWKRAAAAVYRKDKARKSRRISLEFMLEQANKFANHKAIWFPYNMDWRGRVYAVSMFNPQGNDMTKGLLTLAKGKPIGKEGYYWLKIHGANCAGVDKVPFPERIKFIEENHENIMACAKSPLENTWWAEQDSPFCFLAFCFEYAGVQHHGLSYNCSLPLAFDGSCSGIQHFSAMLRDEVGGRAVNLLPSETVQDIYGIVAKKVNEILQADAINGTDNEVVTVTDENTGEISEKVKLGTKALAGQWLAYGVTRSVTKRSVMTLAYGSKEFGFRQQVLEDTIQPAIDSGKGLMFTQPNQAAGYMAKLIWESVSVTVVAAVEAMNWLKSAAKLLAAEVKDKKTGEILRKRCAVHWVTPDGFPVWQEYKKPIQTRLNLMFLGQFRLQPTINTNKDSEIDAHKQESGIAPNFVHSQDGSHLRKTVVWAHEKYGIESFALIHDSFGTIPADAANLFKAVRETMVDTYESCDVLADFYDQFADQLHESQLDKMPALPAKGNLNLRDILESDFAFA
Procedure: • (1) Capping synthesis using cap analogs
The plasmid was first linearized with plasmid linearizing enzyme, and then the linearized plasmid was purified. • (2) In vitro transcription and synthesis of mRNA
(§1) During the experiment, the volume of materials required for the system was first calculated, and then sample addition was conducted. The system was first added with sterile enzyme-free water, followed by the sequential addition of 10× buffer, NTPs, and cap analogs, mixed well, and gently centrifuged. Nuclease inhibitors, inorganic pyrophosphatase, T7RNA polymerase, and linearized DNA templates were then added thereto. The system was mixed well, gently centrifuged, and incubated at 37° C. After 2 hours of incubation, the system was added with 1 U of DNase I and incubated at 37° C. for another 30 minutes. The mRNA precipitate was then washed with 75% ethanol, and after the ethanol was briefly evaporated to dryness, the mRNA was redissolved in sterile enzyme-free water. • (3) The transcription product was purified, and the in vitro transcription yield of mRNA was recorded. • (4) The obtained mRNA was subjected to an annealing reaction with a probe.

[2] = Characterization of lipid nanoparticles encapsulating Fluc-mRNA prepared from different cap structures; assay type: physicochemical; settings: for Particle size: LNP (YK-009/DSPC/cholesterol/DMG-PEG2000) with Fluc-mRNA transcribed using the named cap analog; for PDI: LNP with Fluc-mRNA transcribed using the named cap analog; for EE: encapsulation efficiency of LNP with Fluc-mRNA transcribed using the named cap analog
Procedure: Cationic lipid YK-009 (Beijing Youcare Kechuang Pharmaceutical Technology Co., Ltd.), DSPC (AVT (Shanghai) Pharmaceutical Technology Co., Ltd.), cholesterol (AVT (Shanghai) Pharmaceutical Technology Co., Ltd.), and DMG-PEG2000 were dissolved in ethanol at a molar ratio of 49:10:39.5:1.5, and the mRNA was diluted in 50 mM citrate buffer (pH=4). The ethanol lipid solution was mixed with the Fluc-mRNA aqueous solution prepared from different cap structures at a volume ratio of 1:3 using a microfluidic device at a flow rate of 10 mL/min to prepare LNPs at a weight ratio of total lipid to mRNA of approximately 15:1.
The resulting liposomes were diluted to 10-fold volume with PBS, and then ultrafiltered with a 300 KDa ultrafiltration tube to remove ethanol. The volume was then fixed to a certain volume with PBS. Finally, the LNPs were filtered through a 0.2 μm sterile filter to obtain an LNP preparation encapsulating Fluc-mRNA using YK-009/DSPC/cholesterol/DMG-PEG2000 (at a molar ratio of 49:10:39.5:1.5).
The particle size and polydispersity index (PDI) were determined by dynamic light scattering using a Malvern laser particle size analyzer. 10 μL of the liposome solution was taken, diluted to 1 mL with RNase-free deionized water, and added to a sample pool. Each sample was measured in triplicate. The measurement conditions were: a scattering angle of 90° and a temperature of 25° C. The encapsulation efficiency of LNPs was determined using the Quant-iT RiboGreen RNA Quantification Kit (Thermo Fisher Scientific, UK) according to the manufacturer's instructions.

T7 RNA polymerase [3] = target: T2, T7 RNA polymerase; assay: Capping rate of mRNA transcription initiated by cap analogs (LC-MS); assay type: biochemical; settings: for Capping rate: LC-MS of mRNA 5′ fragment
Procedure: as §1
The annealing reaction was performed in a PCR instrument: 95° C. for 5 minutes; 65° C. for 2 minutes; 55° C. for 2 minutes; 40° C. for 2 minutes; 22° C. for 2 minutes. • (5) Magnetic bead pretreatment and probe binding: 100 μL of magnetic beads was placed on a magnetic frame for pretreatment. The magnetic bead solution was added with 120 μL of sample and incubated at room temperature for 30 minutes with slow mixing. • (6) mRNA splicing and obtaining the mRNA 5′ single-strand sequence bound to the probe
The mixture was added with 20 μL of RNase H (5 U/μL) and incubated at 37° C. for 3 hours with mixing every half hour. After incubation, the magnetic beads were washed and then added with 100 μL of 75% methanol heated to 80° C. The mixture was heated to 80° C. on a heating plate, held for 3 minutes, then placed on a magnetic frame to aspirate the supernatant, and dried at room temperature for 45 minutes to a volume of 10 μL using a centrifugal evaporator. The sample was then resuspended in 50 μL of 100 μM EDTA/1% MeOH and ready for LC-MS analysis to determine the capping of RNA in the transcription reaction. Since there is a significant difference in molecular weight between capped and uncapped bases, the capping rate of mRNA transcription initiated by different cap analogs can be determined based on the difference in molecular mass.

HEK293T cells = assay: Translation efficiency of different capped luciferase mRNAs; assay type: cell-based; settings: for Relative fluorescence intensity: HEK293T, 0.5 μg mRNA per well, 24 hours, proportional to translation efficiency; for Multiple of m6A (relative fluorescence intensity): relative to m6A
Procedure: • (1) HEK293T cells were cultured in DMEM medium containing 10% FBS and penicillin/streptomycin at 37° C. with 5% CO2. • (2)Cells in the culture dish were digested and counted, then spread in a 96-well plate at 10,000 cells per well, and cultured overnight until the cells adhered to the wall. • (3) When the cell density reached approximately 80%, transfection was performed by adding 0.5 μg of mRNA sample and Lipofectamine MessengerMAX Transfection Reagent (Invitrogen) per well according to the manufacturer's instructions. • (4) After the transfected cells were cultured at 37° C. with 5% CO2 for 24 hours, the growth medium was removed from the cells to be tested, and the cells were rinsed with PBS. After centrifugation to remove PBS, 50 μL of 1× lysis buffer was added. The cells and all liquid were transferred to a microcentrifuge tube and centrifuged. • (5) 20 μL of sample was taken and added to 100 μL of Dual-Lumi™ II Luciferase Assay Reagent pre-equilibrated to room temperature, and mixed appropriately. • (6) The mixture was incubated at room temperature (approximately 25° C.) for 5 minutes to stabilize the luminescence signal. Chemiluminescence was detected using a multifunctional microplate reader with a function for detecting chemiluminescence, and the data were recorded.
The relative fluorescence intensity is proportional to the translation efficiency of mRNA.

Compound	Decapping rate (%) of DCP2 enzyme (DCP2 enzyme) [%]	Decrease relative to N-7113 (decapping rate) (DCP2 enzyme) [%]	Yield per unit template (T7 RNA polymerase [1]) [µg]	Increase relative to 5227 (in vitro transcription yield) (T7 RNA polymerase [1]) [%]	Particle size [2] [nm]	PDI [2]	EE [2] [%]	Capping rate (T7 RNA polymerase [3]) [%]	Increase relative to 5227 (capping rate) (T7 RNA polymerase [3]) [%]	Relative fluorescence intensity (HEK293T cells)	Multiple of m6A (relative fluorescence intensity) (HEK293T cells)
CO[C@@H]1[C@H](OP(=O)(O)OC[C@H]2O[C@@H](n3cnc4c(=O)[nH]c(N)nc43)[C@H](O)[C@@H]2O)[C@@H](COP(=O)(O)OP(=O)(O)OP(=O)(O)OC[C@H]2OC([n+]3cn(C)c4c(=O)[nH]c(N)nc43)[C@H](NC(C)=O)[C@@H](O)[C@@H]2O)O[C@H]1n1cnc2c(N)ncnc21 (stereo partly drawn) [YK-CAP-102]	41.2	2.6	44.1	−67.1	73.22	0.055	95.3	30.2	−58.0	0.34	0.9
COC1[C@H](n2cnc3c(N)ncnc32)O[C@H](COP(=O)(O)OP(=O)(O)OP(=O)(O)OC[C@@]23COC([C@H]([n+]4cn(C)c5c(=O)[nH]c(N)nc54)O2)[C@H]3O)[C@H]1OP(=O)(O)OCC1OC(n2cnc3c(=O)[nH]c(N)nc32)C(O)C1O (stereo partly drawn) [Compound 14, reference compound]	26.8	17.0	123.2	−8.2	79.35	0.073	94.2	78.3	8.9	–	2.9
CO[C@@H]1[C@H](OP(=O)(O)OC[C@H]2O[C@@H](n3cnc4c(=O)[nH]c(N)nc43)[C@H](O)[C@@H]2O)[C@@H](COP(=O)(O)OP(=O)(O)OP(=O)(O)OC[C@H]2O[C@@H]([n+]3cn(C)c4c(=O)[nH]c(N)nc43)[C@H](O)[C@]2(C)C#N)O[C@H]1n1cnc2c(N)ncnc21 [YK-CAP-105]	33.9	9.9	82.3	−38.7	77.22	0.063	95.7	69.3	−3.6	0.72	1.9
CO[C@@H]1[C@H](OP(=O)(O)OC[C@H]2O[C@@H](n3cnc4c(=O)[nH]c(N)nc43)[C@H](O)[C@@H]2O)[C@@H](COP(=O)(O)OP(=O)(O)OP(=O)(O)OC[C@H]2O[C@@H]([n+]3cn(C)c4c(=O)[nH]c(N)nc43)[C@H](O)[C@]2(F)CN(C)C)O[C@H]1n1cnc2c(N)ncnc21 [YK-CAP-104]	46.1	−2.3	73.2	−45.5	69.24	0.047	95.7	77.2	7.4	0.81	2.1
CO[C@@H]1[C@H](OP(=O)(O)OC[C@H]2O[C@@H](n3cnc4c(=O)[nH]c(N)nc43)[C@H](O)[C@@H]2O)[C@@H](COP(=O)(O)OP(=O)(O)OP(=O)(O)OC[C@H]2O[C@@H](C[n+]3cn(C)c4c(=O)[nH]c(N)nc43)[C@H](O)[C@@H]2O)O[C@H]1n1cnc2c(N)ncnc21 [YK-CAP-103]	36.5	7.3	88.0	−34.4	67.24	0.053	94.7	71.1	−1.1	0.77	2.0
